Molecular target: T1, AXL (human catalytic domain) (Homo sapiens, UniProt P30530)
T1 construct: purchased Upstate Ltd. 14-512
T1 sequence (P30530 473-894): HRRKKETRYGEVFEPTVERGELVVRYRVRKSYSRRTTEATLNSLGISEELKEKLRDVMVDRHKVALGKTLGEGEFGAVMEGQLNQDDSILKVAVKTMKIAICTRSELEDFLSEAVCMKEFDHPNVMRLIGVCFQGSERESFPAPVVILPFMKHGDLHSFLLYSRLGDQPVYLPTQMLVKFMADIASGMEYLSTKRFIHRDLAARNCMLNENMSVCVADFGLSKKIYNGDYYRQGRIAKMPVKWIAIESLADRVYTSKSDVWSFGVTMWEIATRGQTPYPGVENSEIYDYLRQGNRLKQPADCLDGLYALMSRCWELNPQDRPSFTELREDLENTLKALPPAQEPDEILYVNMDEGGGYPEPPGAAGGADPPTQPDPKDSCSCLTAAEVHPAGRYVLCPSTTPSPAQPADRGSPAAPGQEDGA
Assay: AXL (human catalytic domain) Enzyme Activity Assay (IMAP fluorescence polarisation)
Assay type: biochemical
Outline: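 IMAP FP readout (Ex485/Em535, after overnight binding) measured inhibition of the human AXL catalytic domain (aa473-894, 15 nM final) acting on 100 nM 5FAM-CSK-tide at 150 μM ATP, equal to KM. Reactions ran 60 min at room temperature in pH 7.0 HEPES buffer; IC50 from 10-point curves.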

[1] = further data set (WW-001 through WW-169, XX-001 through XX-469, YY-001 through YY-016, ZZ-001 through ZZ-003), 150 μM ATP
[2] = first data set, recombinant AXL isoform 1 aa473-894, 150 μM ATP

## CC(C(=O)Nc1cccc(Nc2nc3cccc(-c4ccc5c(c4)OCCO5)n3n2)c1)N1CCCC1 (centres unmarked) [XX-136]
[1]
  IC50: ≤ 100 nM

## CC(CN)Oc1ccc(Nc2nc3cccc(-c4ccc5c(c4)OCCO5)n3n2)cc1 (centres unmarked) [XX-118]
[1]
  IC50: ≤ 100 nM

## CC(=O)Nc1cccc(-c2cccc3nc(Nc4ccc(OCCN5CCCC5)cc4)nn23)c1 [XX-241]
[1]
  IC50: 100 to 1000 nM

## O=C(Nc1nc2cccc(-c3ccc(OC(F)(F)F)cc3)n2n1)C1CC1 [WW-099]
[2]
  IC50: 1000 to 10000 nM
[1]
  IC50: 1000 to 10000 nM

## c1cc(-c2ccc3c(c2)CCO3)n2nc(Nc3ccc(OCCN4CCCC4)cc3)nc2c1 [XX-044]
[2]
  IC50: < 1000 nM

## O=S(=O)(C1CCCCC1)n1cc(-c2cccc3nc(Nc4ccc(OCCN5CCCC5)cc4)nn23)cn1 [XX-381]
[1]
  IC50: ≤ 100 nM

## c1cc(-c2ccc3c(c2)OCCO3)n2nc(Nc3cnc(OCCN4CCCC4)nc3)nc2c1 [XX-097]
[1]
  IC50: 100 to 1000 nM

## O=S(=O)(c1cccc(Cl)c1)n1cc(-c2cccc3nc(Nc4ccc(OCCN5CCCC5)cc4)nn23)cn1 [XX-285]
[1]
  IC50: 100 to 1000 nM

## c1cc(OCC2CCCO2)cc(-c2cccc3nc(Nc4ccc(OCCN5CCCC5)cc4)nn23)c1 (centres unmarked) [XX-175, [4-(2-Pyrrolidin-1-yl-ethoxy)-phenyl]-{5-[3-(tetrahydro-furan-2-ylmethoxy)-phenyl]-[1,2,4]triazolo[1,5-a]pyridin-2-yl}-amine]
[1]
  IC50: 100 to 1000 nM

## COCCNCCOc1ccc(Nc2nc3cccc(-c4ccc(OC)cc4)n3n2)cc1 [XX-031]
[2]
  IC50: < 1000 nM
[1]
  IC50: 100 to 1000 nM

## c1cc(-c2cnn(CC3CCCCC3)c2)n2nc(Nc3ccc(OCCN4CCCC4)cc3)nc2c1 [XX-356]
[1]
  IC50: 100 to 1000 nM

## Cc1cccc(CS(=O)(=O)n2cc(-c3cccc4nc(Nc5ccc(OCCN6CCCC6)cc5)nn34)cn2)c1 [XX-286]
[1]
  IC50: 100 to 1000 nM

## COc1ccc(-c2cccc3nc(Nc4ccc(N(C)C(=O)C(C)N5CCOCC5)cc4)nn23)cc1 (centres unmarked) [XX-368]
[1]
  IC50: 100 to 1000 nM

## Cc1ccc2sc(-c3cccc4nc(Nc5ccc(OCCN6CCCC6)cc5)nn34)cc2c1 [XX-214]
[1]
  IC50: 100 to 1000 nM

## O=C(Nc1nc2cccc(-c3ccc4ccccc4c3)n2n1)C1CC1 [WW-089]
[2]
  IC50: < 1000 nM
[1]
  IC50: 100 to 1000 nM

## CCN(CC)CCOc1cc(Nc2nc3cccc(-c4cnn(Cc5ccccc5)c4)n3n2)ccn1 [XX-387]
[1]
  IC50: 100 to 1000 nM

## CC(C(=O)Nc1cccc(-c2cccc3nc(Nc4ccc(OCCN5CCCC5)cc4)nn23)c1)c1cccc(Cl)c1 (centres unmarked) [XX-228]
[1]
  IC50: 1000 to 10000 nM

## CN1CCN(CCC(=O)Nc2nc3cccc(-c4ccc5c(c4)OCCO5)n3n2)CC1 [WW-169]
[1]
  IC50: 1000 to 10000 nM

## Cc1ccc(-c2cccc3nc(Nc4ccc(OCCN5CCCC5)cc4)nn23)cn1 [XX-204]
[1]
  IC50: 1000 to 10000 nM

## CN(C)c1ccc(-c2cccc3nc(Nc4ccc(OCCN5CCCC5)cc4)nn23)cc1 [XX-206]
[1]
  IC50: 100 to 1000 nM

## c1cc(-c2ccc3c(c2)OCCO3)n2nc(Nc3cnc(OCCN4CCCCC4)nc3)nc2c1 [XX-098]
[1]
  IC50: 1000 to 10000 nM

## c1ccc(Cn2cc(-c3cccc4nc(Nc5ccc(OCCN6CCCC6)cc5)nn34)cn2)cc1 [XX-193, [5-(1-Benzyl-1H-pyrazol-4-yl)-[1,2,4]triazolo[1,5-a]pyridin-2-yl]-[4-(2-pyrrolidin-1-yl-ethoxy)-phenyl]-amine]
[1]
  IC50: 100 to 1000 nM

## c1cc(-c2ccc3c(c2)OCCO3)n2nc(Nc3ccnc(OCCN4CCCCC4)c3)nc2c1 [XX-101]
[1]
  IC50: ≤ 100 nM

## COc1ccc(-c2cccc3nc(Nc4ccc(OCCNCc5cccnc5)cc4)nn23)cc1 [XX-033]
[2]
  IC50: < 1000 nM
[1]
  IC50: 100 to 1000 nM

## c1cc(-c2ccc(N3CCOCC3)cc2)n2nc(Nc3ccc(OCCN4CCCC4)cc3)nc2c1 [XX-038]
[2]
  IC50: < 1000 nM
[1]
  IC50: ≤ 100 nM

## CCN(CC)CCNS(=O)(=O)c1ccc(Nc2nc3cccc(-c4ccc5c(c4)OCCO5)n3n2)cc1 [XX-173]
[1]
  IC50: 100 to 1000 nM

## CCN(CC)CCOc1cc(Nc2nc3cccc(-c4ccc(OC)cc4)n3n2)cc(F)c1F [XX-418]
[1]
  IC50: 100 to 1000 nM

## CNCCOc1ccc(Nc2nc3cccc(-c4ccc5c(c4)OCO5)n3n2)cc1 [XX-049]
[2]
  IC50: < 1000 nM
[1]
  IC50: 100 to 1000 nM

## CCOc1ccc(-c2nccc3nc(Nc4ccc(OCCN5CCCC5)cc4)nn23)cc1 [YY-007]
[1]
  IC50: 100 to 1000 nM

## CCN(CC)CCOc1ccc(Nc2nc3cccc(-c4ccc5c(c4)OCCO5)n3n2)cn1 [XX-162]
[1]
  IC50: ≤ 100 nM

## c1cc(-c2cn[nH]c2)cc(-c2cccc3nc(Nc4ccc(OCCN5CCCC5)cc4)nn23)c1 [XX-167]
[1]
  IC50: ≤ 100 nM

## NCCNS(=O)(=O)c1ccc(Nc2nc3cccc(-c4ccc5c(c4)OCCO5)n3n2)cc1 [XX-144]
[1]
  IC50: 100 to 1000 nM

## CC(Nc1cccc2nc(NC(=O)C3CC3)nn12)c1ccccc1 (centres unmarked) [WW-113]
[2]
  IC50: 1000 to 10000 nM
[1]
  IC50: 1000 to 10000 nM

## NCc1ccc(-c2cccc3nc(NC(=O)C4CC4)nn23)cc1 [WW-050]
[2]
  IC50: 1000 to 10000 nM
[1]
  IC50: 1000 to 10000 nM

## c1cc(-c2ccsc2)n2nc(Nc3ccc(OCCN4CCCC4)cc3)nc2c1 [XX-201]
[1]
  IC50: 100 to 1000 nM

## O=C(Nc1nc2cccc(-c3cncc(F)c3)n2n1)C1CC1 [WW-052]
[2]
  IC50: 1000 to 10000 nM
[1]
  IC50: 1000 to 10000 nM

## COc1ccc(-c2cccc3nc(Nc4cccc(N(C)C(=O)C(C)N5CCOCC5)c4)nn23)cc1 (centres unmarked) [XX-391]
[1]
  IC50: 100 to 1000 nM

## c1cc(-c2ccc3c(c2)OCCO3)n2nc(Nc3ccc(OCCN4CCCC4)nc3)nc2c1 [XX-102]
[1]
  IC50: 100 to 1000 nM

## O=C(Nc1nc2cccc(-c3ccc4occc4c3)n2n1)C1CC1 [WW-133]
[2]
  IC50: < 1000 nM
[1]
  IC50: 100 to 1000 nM

## CCn1cc(-c2ccc(-c3cccc4nc(Nc5ccc(OCCN6CCCC6)cc5)nn34)cc2)cn1 [XX-191]
[1]
  IC50: 100 to 1000 nM

## COc1ccccc1CNc1cccc(-c2cccc3nc(Nc4ccc(OCCN5CCCC5)cc4)nn23)c1 [XX-451]
[1]
  IC50: 100 to 1000 nM

## OCc1ccc(-c2cccc3nc(Nc4ccc(OCCN5CCCC5)cc4)nn23)cc1 [XX-237]
[1]
  IC50: 100 to 1000 nM

## CCN(CC)CCOc1cc(Nc2nc3cccc(-c4ccc(OC)cc4)n3n2)ccn1 [XX-361]
[1]
  IC50: ≤ 100 nM

## Cc1ccccc1-c1cccc2nc(Nc3ccc(OCCN4CCCC4)cc3)nn12 [XX-212]
[1]
  IC50: 1000 to 10000 nM

## Cc1noc(C)c1-c1cccc(-c2cccc3nc(Nc4ccc(OCCN5CCCC5)cc4)nn23)c1 [XX-464]
[1]
  IC50: 100 to 1000 nM

## Cc1c(-c2cccc3nc(NC(=O)C4CC4)nn23)cnn1-c1ccccc1 [WW-148]
[2]
  IC50: 1000 to 10000 nM
[1]
  IC50: 1000 to 10000 nM

## Cc1ncsc1CNc1cccc(-c2cccc3nc(Nc4ccc(OCCN5CCCC5)cc4)nn23)c1 [XX-394]
[1]
  IC50: ≤ 100 nM

## O=C(Nc1nc2cccc(-c3ccc(Cl)cc3)n2n1)C1CC1 [WW-023]
[2]
  IC50: 1000 to 10000 nM
[1]
  IC50: 1000 to 10000 nM

## COc1ccc(-c2cccc3nc(Nc4ccc(OCCN5CCCC5)cc4)nn23)cc1F [XX-240]
[1]
  IC50: 100 to 1000 nM

## COc1ccc(-c2cccc3nc(Nc4cccc(OCCn5ccnc5)c4)nn23)cc1 [XX-015, [3-(2-Imidazol-1-yl-ethoxy)-phenyl]-[5-(4-methoxy-phenyl)-[1,2,4]triazolo[1,5-a]pyridin-2-yl]-amine]
[2]
  IC50: < 1000 nM
[1]
  IC50: 100 to 1000 nM

## Cc1nc(C)c(CNc2cccc(-c3cccc4nc(Nc5ccc(OCCN6CCCC6)cc5)nn34)c2)s1 [XX-263]
[1]
  IC50: 100 to 1000 nM

## CCN(CC)CCOc1cc(Nc2nc3cccc(-c4ccc5c(c4)OCO5)n3n2)ccn1 [XX-358]
[1]
  IC50: 100 to 1000 nM

## CC(CNc1cccc(Nc2nc3cccc(-c4ccc5c(c4)OCCO5)n3n2)c1)N1CCCC1 (centres unmarked) [XX-140]
[1]
  IC50: 100 to 1000 nM

## O=C(NCc1ccc(Cl)cc1)c1cccc(-c2cccc3nc(Nc4ccc(OCCN5CCCC5)cc4)nn23)c1 [XX-462, N-(4-Chloro-benzyl)-3-{2-[4-(2-pyrrolidin-1-yl-ethoxy)-phenylamino]-[1,2,4]triazolo[1,5-a]pyridin-5-yl}-benzamide]
[1]
  IC50: 1000 to 10000 nM

## Cc1c(-c2cccc3nc(Nc4ccc(OCCN5CCCC5)cc4)nn23)cnn1-c1ccccc1 [XX-438]
[1]
  IC50: 100 to 1000 nM

## CCC(=O)Nc1nc2cccc(-c3ccc(OC)cc3)n2n1 [WW-040]
[2]
  IC50: 1000 to 10000 nM
[1]
  IC50: 1000 to 10000 nM

## Cc1ncc(CNc2cccc(-c3cccc4nc(Nc5ccc(OCCN6CCCC6)cc5)nn34)c2)n1C [XX-449]
[1]
  IC50: 100 to 1000 nM

## Cc1ccc(-c2cccc(-c3cccc4nc(Nc5ccc(OCCN6CCCC6)cc5)nn34)c2)s1 [XX-463]
[1]
  IC50: 1000 to 10000 nM

## COc1ccc(-c2cccc3nc(NC(=O)C4CC4)nn23)cn1 [WW-006, Cyclopropanecarboxylic acid [5-(6-methoxy-pyridin-3-yl)-[1,2,4]triazolo[1,5-a]pyridin-2-yl]-amide]
[2]
  IC50: 1000 to 10000 nM
[1]
  IC50: 1000 to 10000 nM
